Reference: BindingDB's records for doi:10.3109/14756366.2012.709242 (Anadolu University, 2013)

Legend:
Acetylcholinesterase = Acetylcholinesterase (Electrophorus electricus, UniProt O42275); assay: Enzymatic Assay; settings: pH 8; 25 °C
Description: (§1) AChE or BChE solution (50 μL) and compound solution (50 μL), which is prepared in 2% DMSO at a concentration range of 10^−1-10^−6 mM, were added to 3.0 mL phosphate buffer (pH8 ± 0.1) and incubated at 25°C for 5 min. The reaction was started by adding (DTNB) (50 μL) and ATC (10 μL) to the enzyme-inhibitor mixture. […] As a control, an identical solution of the enzyme without the inhibitor was processed following the same protocol. The blank reading contained 3.0 mL buffer, 50 μL 2% DMSO, 50 μL DTNB and 10 μL substrate. All processes were assayed in triplicate.

[1] = target: Carboxylic ester hydrolase (Equus caballus, UniProt Q9N1N9); assay: Enzymatic Assay
Description: as §1

Acetylcholinesterase, sequence (O42275 whole entry): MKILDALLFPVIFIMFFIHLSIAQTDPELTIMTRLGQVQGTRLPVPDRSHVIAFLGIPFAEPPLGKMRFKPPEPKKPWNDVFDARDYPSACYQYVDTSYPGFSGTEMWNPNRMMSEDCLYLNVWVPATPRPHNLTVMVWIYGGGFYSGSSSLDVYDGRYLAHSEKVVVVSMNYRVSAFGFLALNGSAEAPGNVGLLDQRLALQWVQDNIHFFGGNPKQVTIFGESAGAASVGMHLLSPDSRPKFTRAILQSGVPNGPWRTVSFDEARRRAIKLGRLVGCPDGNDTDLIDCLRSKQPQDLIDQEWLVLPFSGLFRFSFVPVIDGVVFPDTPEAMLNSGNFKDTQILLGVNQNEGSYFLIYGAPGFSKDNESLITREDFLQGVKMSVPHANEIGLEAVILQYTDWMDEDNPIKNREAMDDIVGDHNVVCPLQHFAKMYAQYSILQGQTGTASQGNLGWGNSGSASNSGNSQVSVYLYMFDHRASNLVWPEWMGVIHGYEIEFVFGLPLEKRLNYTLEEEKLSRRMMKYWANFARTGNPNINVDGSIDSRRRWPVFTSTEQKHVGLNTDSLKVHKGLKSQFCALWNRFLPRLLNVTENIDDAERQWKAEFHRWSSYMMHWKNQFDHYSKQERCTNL
Carboxylic ester hydrolase, sequence (Q9N1N9 whole entry): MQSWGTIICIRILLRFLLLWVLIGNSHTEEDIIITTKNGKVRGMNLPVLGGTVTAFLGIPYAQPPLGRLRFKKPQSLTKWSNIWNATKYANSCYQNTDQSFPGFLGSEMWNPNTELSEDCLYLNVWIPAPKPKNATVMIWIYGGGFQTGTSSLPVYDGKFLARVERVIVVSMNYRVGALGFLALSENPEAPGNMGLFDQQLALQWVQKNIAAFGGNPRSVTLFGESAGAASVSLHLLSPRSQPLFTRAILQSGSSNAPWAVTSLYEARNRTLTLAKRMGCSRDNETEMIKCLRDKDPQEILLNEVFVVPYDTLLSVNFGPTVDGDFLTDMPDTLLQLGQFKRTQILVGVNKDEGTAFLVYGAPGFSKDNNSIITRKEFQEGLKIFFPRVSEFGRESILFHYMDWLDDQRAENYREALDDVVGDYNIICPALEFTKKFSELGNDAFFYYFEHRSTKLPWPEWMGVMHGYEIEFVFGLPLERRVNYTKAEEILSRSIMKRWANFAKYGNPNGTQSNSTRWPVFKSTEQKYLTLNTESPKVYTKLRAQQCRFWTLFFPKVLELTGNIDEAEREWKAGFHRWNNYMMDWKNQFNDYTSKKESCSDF

Row | Structure (SMILES) | IC50 (Acetylcholinesterase) | IC50 [1]
1 | Cc1nc(-c2ccc(NC(=O)CN3CCN(Cc4ccccc4)CC3)cc2)cs1 [2-[4-(2-Benzyl)piperazine-1-yl]-N-[4-(2-methylthiazol-4-yl)phenyl]acetamide (5o)] | 0.011 µM | > 100 µM
2 | Cc1nc(-c2ccc(NC(=O)CN3CCN(C4CCCCC4)CC3)cc2)cs1 [2-(4-Cyclohexylpiperazine-1-yl)-N-[4-(2-methylthiazol-4-yl)pheny])acetamide (5c)] | 6.34 µM | > 100 µM
3 | COc1ccc(N2CCN(CC(=O)Nc3ccc(-c4csc(C)n4)cc3)CC2)cc1 [2-[4-(4-Methoxyphenyl)piperazine-1-yl]-N-[4-(2-methylthiazol-4-yl)phenyl]acetamide (5f)] | > 100 µM | > 100 µM
4 | CCN1CCN(CC(=O)Nc2ccc(-c3csc(C)n3)cc2)CC1 [2-(4-Ethylpiperazine-1-yl)-N-[4-(2-methylthiazol-4-yl)pheny])acetamide (5b)] | 11.7 µM | > 100 µM
5 | Cc1nc(-c2ccc(NC(=O)CN3CCN(c4ccccn4)CC3)cc2)cs1 [2-[4-(2-Pyridyl)piperazine-1-yl]-N-[4-(2-methylthiazol-4-yl)phenyl]acetamide (5n)] | 0.051 µM | > 100 µM
6 | Cc1nc(-c2ccc(NC(=O)CN3CCN(c4ccc(F)cc4)CC3)cc2)cs1 [2-[4-(4-Florophenyl)piperazine-1-yl]-4-[4-(2-methylthiazol-4-yl)phenyl]acetamide (5h)] | > 100 µM | > 100 µM
7 | Cc1nc(-c2ccc(NC(=O)CN3CCN(c4ccc([N+](=O)[O-])cc4)CC3)cc2)cs1 [2-[4-(4-Nitrophenyl)piperazine-1-yl]-N-[4-(2-methylthiazol-4-yl)pheny]acetamide (5i)] | > 100 µM | > 100 µM
8 | Cc1ccc(N2CCN(CC(=O)Nc3ccc(-c4csc(C)n4)cc3)CC2)cc1 [2-[4-(4-Methylphenyl)piperazine-1-yl]-N-[4-(2-methylthiazol-4-yl)phenyl]acetamide (5e)] | > 100 µM | > 100 µM
9 | Cc1cccc(N2CCN(CC(=O)Nc3ccc(-c4csc(C)n4)cc3)CC2)c1 [2-[4-(3-Methylphenyl)piperazine-1-yl]-N-[4-(2-methylthiazol-4-yl)phenyl]acetamide (5j)] | 88.4 µM | > 100 µM
10 | Cc1nc(-c2ccc(NC(=O)CN3CCN(c4ccccc4)CC3)cc2)cs1 [2-(4-Phenylpiperazine-1-yl)-N-[4-(2-methylthiazol-4-yl)phenyl]acetamide (5d)] | > 100 µM | > 100 µM
11 | COc1cccc(N2CCN(CC(=O)Nc3ccc(-c4csc(C)n4)cc3)CC2)c1 [2-[4-(3-Methoxyphenyl)piperazine-1-yl]-N-[4-(2-methylthiazol-4-yl)phenyl]acetamide (5k)] | > 100 µM | > 100 µM
12 | Cc1nc(-c2ccc(NC(=O)CN3CCN(c4ccc(Cl)cc4)CC3)cc2)cs1 [2-[4-(4-Chlorophenyl)piperazine-1-yl]-N-[4-(2-methylthiazol-4-yl)phenyl]acetamide (5g)] | > 100 µM | > 100 µM
13 | Cc1nc(-c2ccc(NC(=O)CN3CCN(C(=O)c4ccco4)CC3)cc2)cs1 [2-[4-(2-Furoyl)piperazine-1-yl]-N-[4-(2-methylthiazol-4-yl)phenyl]acetamide (5p)] | 0.27 µM | > 100 µM
14 | Cc1nc(-c2ccc(NC(=O)CN3CCN(C)CC3)cc2)cs1 [2-(4-Methylpiperazine-1-yl)-N-[4-(2-methylthiazol-4-yl)phenyl]acetamide (5a)] | 7.12 µM | > 100 µM
15 | Cc1nc(-c2ccc(NC(=O)CN3CCN(c4ccccc4C)CC3)cc2)cs1 [2-[4-(2-Methylphenyl)piperazine-1-yl]-N-[4-(2-methylthiazol-4-yl)pheny]acetamide (5l)] | > 100 µM | > 100 µM
16 | COc1ccccc1N1CCN(CC(=O)Nc2ccc(-c3csc(C)n3)cc2)CC1 [2-[4-(2-Methoxyphenyl)piperazine-1-yl]-N-[4-(2-methylthiazol-4-yl)phenyl]acetamide (5m)] | 8.42 µM | > 100 µM
